In publication PMC11025159 (Journal of Translational Medicine, 2024):

How the values were obtained:
[1] = system: athymic nude mice (NU/J Foxn1nu); assay: Hair growth in athymic nude mice (topical, 28 days); assay type: in vivo; conditions: for H&E skin histopathology finding / hair follicle grade: day 28; for early onset of hair: topical
Experimental: The groups are as follows: Group 1-Control (untreated), Group 2-Vehicle control, Group 3-tofacitinib citrate (0.8 mg/Kg), Group 4-tofacitinib citrate (0.08 mg/Kg), Group 5-MJ04 (0.08 mg/Kg), Group 6-MJ04 (0.04 mg/Kg), Group 7-MJ04 (0.016 mg/Kg), Group 8-baricitinib (0.1 mg/Kg), Group 9-baricitinib (0.04 mg/Kg), and Group 10-baricitinib (0.02 mg/Kg). At the end of the experiment, skin samples were collected and preserved in 10% neutral buffered formalin for tissue sectioning and staining using haematoxylin and eosin (H&E). The histopathological examinations were performed under the 10× and 40× objectives of light microscope (Magnus, Mx21i), and hair follicles were graded on a scale of 0 to 4 (++++).
The skin samples collected from athymic nude mice (NU/J Foxn1^nu) were preserved in 10% neutral buffered formalin and processed for tissue sectioning. The skin sections (10 µm) of nude mice were stained using haematoxylin and eosin (H&E) and viewed under 10× and 40× objectives of the light microscope (Magnus, Mx21i). The histopathological examination of the samples was performed, and the hair follicles in the skin sections were graded on a scale of 0 to 4 (++++).

[2] = system: DHT-induced AGA mice; assay: Hair regrowth in DHT-induced AGA mice model (topical, 28 days); assay type: in vivo, C57BL/6J mice; conditions: for H&E skin histopathology finding: Days 7, 14, 21, 28; for hair follicle phase (histopathology): skin samples days 7, 14, 21, 28; for entry into the anagen phase: topical once a day in presence of testosterone
Experimental: C57BL/6 J mice (male) were obtained from CSIR-IIIM Animal House at 7 weeks of age. We used a DHT-induced AGA mice model for this study. […] At the end of the experiment, skin samples were collected and preserved in 10% neutral buffered formalin for tissue sectioning and staining using haematoxylin and eosin (H&E). The histopathological examinations were performed under the 10× and 40× objectives of light microscope (Magnus, Mx21i).
Dorsal skin samples from C57BL/6J mice were shaved and collected for histological and molecular analyses on Days 7, 14, 21, and 28. The full-thickness skin tissue was fixed in a 10% neutral buffered formalin solution (Sigma) overnight and subsequently dehydrated for embedding in paraffin. Haematoxylin and eosin (H&E) staining was performed on the skin tissue, and digital photomicrographs were taken from the representative areas using light microscope (Magnus, Mx21i).
The quantification of anagen initiation was assessed by observing changes in the dorsal skin colour of C57BL/6 mice, a phenomenon closely linked to the onset of the anagen phase. Anagen quantification was done by employing threshold analysis on dorsal skin colouration using ImageJ. The darkening of the skin, attributed to melanogenesis, strongly correlates with the progression of anagen. This analysis is visually depicted as a heatmap using GraphPad Prism 9.5 Software.

## CCS(=O)(=O)N1CC(CC#N)(n2cc(-c3ncnc4[nH]ccc34)cn2)C1 [Baricitinib, baricitinib, reference compound]
[1]; 0.02 mg/kg
  H&E skin histopathology finding: Moderate degree of epidermal thickening
  hair follicle grade: ++++ (graded on a scale ranging from 0 to 4 (++++))
[1]; 0.04 mg/kg
  H&E skin histopathology finding: Moderate degree of epidermal thickening
  hair follicle grade: ++++ (graded on a scale ranging from 0 to 4 (++++))
[1]; 0.1 mg/kg
  H&E skin histopathology finding: Increased and morphologically distinct hair follicles
  hair follicle grade: +++ (graded on a scale ranging from 0 to 4 (++++))
[1]
  early onset of hair: 12 days
[2]; 0.04mg/kg
  H&E skin histopathology finding: Minimal degree of epidermal thickening with increased distinct hair follicles
[2]
  hair follicle phase (histopathology): at least in the anagen IIIc-IV phase
  entry into the anagen phase: rapid entry into the anagen phase within seven days of treatment

## Fc1ccc(-c2cnc3[nH]cc(-c4ccnc(NC5CC5)n4)c3c2)cc1 [MJ04]
[1]; 0.016 mg/kg
  H&E skin histopathology finding: Mild epidermal thickening with increased hair follicles
  hair follicle grade: +++ (graded on a scale ranging from 0 to 4 (++++))
[1]; 0.04 mg/kg
  H&E skin histopathology finding: Mild epidermal thinning with increased hair follicles in the dermis and hypodermis
  hair follicle grade: ++++ (graded on a scale ranging from 0 to 4 (++++))
[1]; 0.08 mg/kg
  H&E skin histopathology finding: Minimal epidermal thickening with moderate hair follicle
  hair follicle grade: ++ (graded on a scale ranging from 0 to 4 (++++))
[1]
  early onset of hair: 12 days
[2]; 0.04 mg/Kg topical
  hair growth compared to controls and tofacitinib-treated mice: significantly higher and homogeneous hair growth
[2]; 0.04mg/kg
  H&E skin histopathology finding: Minimal degree of epidermal atrophy
[2]; 0.08mg/kg
  H&E skin histopathology finding: Normal epidermis with increased hair follicles
[2]
  hair follicle phase (histopathology): at least in the anagen IIIc-IV phase
  entry into the anagen phase: rapid entry into the anagen phase within seven days of treatment
[2]; within 10 days of treatment
  mice displaying intense skin darkening followed by hair growth: around 90%
